Measured values reported in US20250340570A1, “COMPOSITIONS USEFUL FOR MODULATING SPLICING” (Skyhawk Therapeutics, Inc., priority 2022, published 2025).

Tests used:
total ATXN3 protein = experiment: ATXN3 total protein assay (Mesoscale Discovery); assay type: cell-based; conditions: Human neuroblastoma SK-N-MC cells, 48 hours incubation, MSD assay
Method: Human neuroblastoma SK-N-MC cells were seeded at 10,000 cells/well in 384 well plates one day prior to compound treatment. The concentrations of compounds were tested at appropriate doses ranging from 30 µM to 0.6 nM. After incubation for 48 hours, the cells were lysed with 25.L of lysis buffer containing protease inhibitors, and total ATXN3 protein levels were assessed by Mesoscale Discovery (MSD) assay developed with one pair of and-ATXN3 antibodies. The capture and detect antibodies were raised in mouse and rabbit respectively. Anti-rabbit MSD-ST antibody was used for secondary antibody.
ATXN3 recombinant protein was used for standards. The readouts were captured with 35.L of MSD read buffer and multi-array 384-well high binding plates.

[1] = test system: ATXN3 transcripts containing exon 4; experiment: ATXN3 quantitative splicing assay (qPCR, E4E5 transcripts containing exon 4); assay type: cell-based; conditions: Human neuroblastoma SK-N-MC cells, 24 h treatment, qPCR primers/probe E4E5
Method: Human neuroblastoma SK-N-MC cells were plated in 384-well plates at 20,000 cells/well. Twenty-four hours after plating, cells were treated with compounds for 24 h at appropriate concentrations ranging from 30 μM to 0.6 nM (0.3% DMSO). Treated cells were lysed in 15 μL of lysis buffer, and cDNA was synthesized using the Fast Advanced Cells-to-Ct kit. Two μL of each cDNA was used in qPCR reactions to confirm the exon 4 skipped transcripts of ATXN3. A second set of primers/probe E4E5 was used to detect the transcripts containing exon 4. The third set of primers/probe E8E9 was used to detect total gene level of ATXN3. The qPCR reactions were prepared in 384-well plates in 10.L volume, using TaqMan™ Fast Advanced Master Mix with primers and probes shown in the table below. Reactions were run in a Quant Studio 6 qPCR instrument with default settings.
The primers and probes are listed below in Table 5.

Row | Structure (SMILES) | IC50 (total ATXN3 protein) [µM] | IC50 [1] [µM]
1 | Cc1csc2c(NCc3ccncc3)snc12 [Compound 1, [(4-pyridyl)methyl](8-methyl-3,6-dithia-2-azabicyclo[3.3.0]octa-1,4,7-trien-4-yl)amine] | 10 to 40 | 10 to 40
2 | Cc1csc2c(NCc3ccccc3)snc12 [Compound 3, (benzyl)(8-methyl-3,6-dithia-2-azabicyclo[3.3.0]octa-1,4,7-trien-4-yl)amine] | 10 to 40 | 10 to 40
3 | Cc1csc2c(NCc3ccco3)snc12 [Compound 4, (furfuryl)(8-methyl-3,6-dithia-2-azabicyclo[3.3.0]octa-1,4,7-trien-4-yl)amine] | 10 to 40 | 10 to 40
4 | Cc1c(C[C@H](C)N)sc2c(NCc3ccccc3)snc12 [Compound 5, 7-[(S)-2-aminopropyl]-4-benzylamino-8-methyl-3,6-dithia-2-azabicyclo[3.3.0]octa-1,4,7-triene] | 0.501 to 5 | 5 to 10
5 | Cc1c(C[C@H](C)N)sc2c(NCc3ccco3)snc12 [Compound 6, 7-[(S)-2-aminopropyl]-4-(furfurylamino)-8-methyl-3,6-dithia-2-azabicyclo[3.3.0]octa-1,4,7-triene] | 0.501 to 5 | 0.501 to 5
6 | Cc1c(C[C@H](C)N)sc2c(NCc3cccs3)snc12 [Compound 7, 7-[(S)-2-aminopropyl]-8-methyl-4-thenylamino-3,6-dithia-2-azabicyclo[3.3.0]octa-1,4,7-triene] | 0.501 to 5 | 0.501 to 5
7 | Cc1c(C[C@@H](N)CC2CC2)sc2c(NCc3cccs3)snc12 [Compound 8, 7-[(S)-2-amino-3-cyclopropylpropyl]-8-methyl-4-thenylamino-3,6-dithia-2-azabicyclo[3.3.0]octa-1,4,7-triene] | 5 to 10 | 5 to 10
8 | Cc1c(C[C@@H](N)CC2CC2)sc2c(NCc3ccco3)snc12 [Compound 9, 7-[(S)-2-amino-3-cyclopropylpropyl]-4-(furfurylamino)-8-methyl-3,6-dithia-2-azabicyclo[3.3.0]octa-1,4,7-triene] | 0.501 to 5 | 0.501 to 5
9 | Cc1c(C[C@@H](N)CF)sc2c(NCc3cccs3)snc12 [Compound 10, 7-[(R)-2-amino-3-fluoropropyl]-8-methyl-4-thenylamino-3,6-dithia-2-azabicyclo[3.3.0]octa-1,4,7-triene] | 0.501 to 5 | 0.501 to 5
10 | C[C@H](N)Cc1sc2c(NCc3cccs3)snc2c1Cl [Compound 17, 7-[(S)-2-aminopropyl]-8-chloro-4-thenylamino-3,6-dithia-2-azabicyclo[3.3.0]octa-1,4,7-triene] | 0.101 to 0.5 | 0.501 to 5
11 | C[C@H](N)Cc1sc2c(NCc3cccs3)snc2c1Br [Compound 18, 7-[(S)-2-aminopropyl]-8-bromo-4-thenylamino-3,6-dithia-2-azabicyclo[3.3.0]octa-1,4,7-triene] | 0.101 to 0.5 | 0.101 to 0.5
12 | C[C@H](N)Cc1sc2c(NCc3cccs3)snc2c1C#N [Compound 19, 7-[(S)-2-aminopropyl]-4-thenylamino-3,6-dithia-2-azabicyclo[3.3.0]octa-1,4,7-triene-8-carbonitrile] | 0.501 to 5 | 0.501 to 5
13 | C[C@H](N)Cc1sc2c(NCc3cccs3)snc2c1C1CC1 [Compound 20, 7-[(S)-2-aminopropyl]-8-cyclopropyl-4-thenylamino-3,6-dithia-2-azabicyclo[3.3.0]octa-1,4,7-triene] | 10 to 40 | 10 to 40
14 | C=Cc1c(C[C@H](C)N)sc2c(NCc3cccs3)snc12 [Compound 21, 5-[(2S)-2-aminopropyl]-6-ethenyl-N-(thiophen-2-ylmethyl) thieno[3,2-c][1,2]thiazol-3-amine] | 10 to 40 | 10 to 40
15 | C[C@H](N)Cc1sc2c(NCc3ccco3)snc2c1Cl [Compound 23, 7-[(S)-2-aminopropyl]-8-chloro-4-(furfurylamino)-3,6-dithia-2-azabicyclo[3.3.0]octa-1,4,7-triene] | 0.101 to 0.5 | 0.101 to 0.5
16 | C[C@H](N)Cc1sc2c(NCc3ccco3)snc2c1Br [Compound 24, 7-[(S)-2-aminopropyl]-8-bromo-4-(furfurylamino)-3,6-dithia-2-azabicyclo[3.3.0]octa-1,4,7-triene] | 0.101 to 0.5 | 0.101 to 0.5
17 | C[C@H](N)Cc1sc2c(NCc3ccco3)snc2c1O [Compound 25, 7-[(S)-2-aminopropyl]-4-(furfurylamino)-3,6-dithia-2-azabicyclo[3.3.0]octa-1,4,7-trien-8-ol] | 10 to 40 | 10 to 40
18 | COc1c(C[C@H](C)N)sc2c(NCc3ccco3)snc12 [Compound 26, 5-[(2S)-2-aminopropyl]-N-(furan-2-ylmethyl)-6-methoxythieno[3,2-c][1,2]thiazol-3-amine] | 5 to 10 | 5 to 10
19 | C[C@H](N)Cc1sc2c(NCc3cccs3)snc2c1O [Compound 27, 7-[(S)-2-aminopropyl]-4-thenylamino-3,6-dithia-2-azabicyclo[3.3.0]octa-1,4,7-trien-8-ol] | 10 to 40 | 10 to 40
20 | COc1c(C[C@H](C)N)sc2c(NCc3cccs3)snc12 [Compound 28, 7-[(S)-2-aminopropyl]-8-methoxy-4-thenylamino-3,6-dithia-2-azabicyclo[3.3.0]octa-1,4,7-triene] | 10 to 40 | 5 to 10
21 | C[C@H](N)Cc1sc2c(NCc3cccs3)snc2c1F [Compound 30, 7-[(S)-2-aminopropyl]-8-fluoro-4-thenylamino-3,6-dithia-2-azabicyclo[3.3.0]octa-1,4,7-triene] | 10 to 40 | 5 to 10
22 | C[C@H](N)Cc1sc2c(NCc3ccco3)snc2c1C1CC1 [Compound 31, 7-[(S)-2-aminopropyl]-8-cyclopropyl-4-(furfurylamino)-3,6-dithia-2-azabicyclo[3.3.0]octa-1,4,7-triene] | 5 to 10 | 5 to 10
23 | C[C@H](N)Cc1sc2c(NCc3cccs3)snc2c1C(F)(F)F [Compound 35, 7-[(S)-2-aminopropyl]-4-thenylamino-8-(trifluoromethyl)-3,6-dithia-2-azabicyclo[3.3.0]octa-1,4,7-triene] | 0.501 to 5 | 0.501 to 5
24 | Cc1c(C[C@@H](N)CC(F)(F)F)sc2c(NCc3cccs3)snc12 [Compound 36, 7-[(S)-2-amino-4,4,4-trifluorobutyl]-8-methyl-4-thenylamino-3,6-dithia-2-azabicyclo[3.3.0]octa-1,4,7-triene] | 0.501 to 5 | 0.501 to 5
25 | Cc1c(C[C@@H](N)CO)sc2c(NCc3cccs3)snc12 [Compound 37, (R)-2-amino-3-(8-methyl-4-thenylamino-3,6-dithia-2-azabicyclo[3.3.0]octa-1,4,7-trien-7-yl)-1-propanol] | 0.501 to 5 | 0.501 to 5
26 | N[C@H](Cc1sc2c(NCc3cccs3)snc2c1Cl)CC(F)(F)F [Compound 38, 7-[(S)-2-amino-4,4,4-trifluorobutyl]-8-chloro-4-thenylamino-3,6-dithia-2-azabicyclo[3.3.0]octa-1,4,7-triene] | 0.501 to 5 | 0.501 to 5
27 | N[C@H](Cc1sc2c(NCc3cccs3)snc2c1Br)CC(F)(F)F [Compound 39, 7-[(S)-2-amino-4,4,4-trifluorobutyl]-8-bromo-4-thenylamino-3,6-dithia-2-azabicyclo[3.3.0]octa-1,4,7-triene] | 0.501 to 5 | 0.501 to 5
